Data taken from publication PMC7982320 (Pharmacology Research & Perspectives, 2021).
Entries after “also recorded” stand apart in the source; their conditions may differ. Where two headings read alike, the source gives them in different places.

How the values were obtained:
[1] = biological target: CYP2C19 (Homo sapiens, UniProt P33261); test: CYP inhibition in pooled human liver microsomes, S-mephenytoin probe; assay type: in vitro ADME
[2] = system: CYP2B6; test: in vitro; assay type: in vitro ADME, human; details: 48 h
[3] = system: CYP3A4; details: 48 h

CYP2C19, sequence (P33261 whole entry): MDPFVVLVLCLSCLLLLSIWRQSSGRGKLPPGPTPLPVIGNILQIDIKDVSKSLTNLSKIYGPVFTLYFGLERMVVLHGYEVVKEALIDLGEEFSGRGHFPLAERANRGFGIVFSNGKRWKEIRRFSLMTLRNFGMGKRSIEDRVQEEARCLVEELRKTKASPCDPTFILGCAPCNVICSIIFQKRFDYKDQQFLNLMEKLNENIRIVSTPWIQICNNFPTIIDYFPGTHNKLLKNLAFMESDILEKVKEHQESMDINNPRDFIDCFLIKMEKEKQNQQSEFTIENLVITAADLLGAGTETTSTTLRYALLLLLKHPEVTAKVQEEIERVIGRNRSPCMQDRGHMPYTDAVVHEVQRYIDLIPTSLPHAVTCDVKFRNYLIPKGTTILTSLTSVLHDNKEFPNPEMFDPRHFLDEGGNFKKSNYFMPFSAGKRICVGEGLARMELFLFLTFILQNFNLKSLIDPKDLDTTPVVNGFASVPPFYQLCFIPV

For `CC1=N[C@]2(C(=O)CO)[C@@H](C[C@H]3[C@@H]4C[C@@H](O)C5=CC(=O)C=C[C@]5(C)[C@H]4[C@@H](O)C[C@@]32C)O1` [6β‐OH‐21‐desDFZ, 6β‐Hydroxy‐21‐desacetyl deflazacort], the “estimated plasma Cmax/IC50 ratio” value ([1]; CYP2C19, Cmax 0.34 µM, assumed 100% free) was 0.007, the IC50 ([1]; read-out: IC50, No preincubation, CYP2C19, pooled HLMs, n = 3) was roughly 50 µM and the “CYP2B6 enzyme activity fold induction” value ([2]; donor one, 0.002 µM) was 0.921 fold. For the same molecule, the “CYP2B6 mRNA fold induction” value ([2]; donor one, 0.002 µM) was 0.680 fold, the “CYP2B6 enzyme activity fold induction” value ([2]; donor one, 0.01 µM) was 0.826 fold and the “CYP2B6 mRNA fold induction” value ([2]; donor one, 0.01 µM) was 0.750 fold. The “CYP2B6 enzyme activity fold induction” value ([2]; donor one, 0.05 µM) was 0.767 fold, the “CYP2B6 mRNA fold induction” value ([2]; donor one, 0.05 µM) was 0.736 fold and the “CYP2B6 enzyme activity fold induction” value ([2]; donor one, 0.25 µM) was 0.752 fold. The “CYP2B6 mRNA fold induction” value ([2]; donor one, 0.25 µM) was 0.794 fold, the “CYP2B6 enzyme activity fold induction” value ([2]; donor one, 5 µM) was 0.832 fold and the “CYP2B6 mRNA fold induction” value ([2]; donor one, 5 µM) was 0.616 fold. The “CYP2B6 enzyme activity fold induction” value ([2]; donor one, 10 µM) was 0.814 fold, the “CYP2B6 mRNA fold induction” value ([2]; donor one, 10 µM) was 0.663 fold and the “CYP2B6 enzyme activity fold induction” value ([2]; donor one, 20 µM) was 0.896 fold. The “CYP2B6 mRNA fold induction” value ([2]; donor one, 20 µM) was 0.756 fold, the “CYP2B6 enzyme activity fold induction” value ([2]; donor three, 0.002 µM) was 0.836 fold and the “CYP2B6 mRNA fold induction” value ([2]; donor three, 0.002 µM) was 0.704 fold. For the same molecule, the “CYP2B6 enzyme activity fold induction” value ([2]; donor three, 0.01 µM) was 0.829 fold, the “CYP2B6 mRNA fold induction” value ([2]; donor three, 0.01 µM) was 0.745 fold and the “CYP2B6 enzyme activity fold induction” value ([2]; donor three, 0.05 µM) was 0.829 fold. The “CYP2B6 mRNA fold induction” value ([2]; donor three, 0.05 µM) was 0.721 fold, the “CYP2B6 enzyme activity fold induction” value ([2]; donor three, 0.25 µM) was 0.810 fold and the “CYP2B6 mRNA fold induction” value ([2]; donor three, 0.25 µM) was 0.726 fold. For the same molecule, the “CYP2B6 enzyme activity fold induction” value ([2]; donor three, 5 µM) was 1.01 fold, the “CYP2B6 mRNA fold induction” value ([2]; donor three, 5 µM) was 0.791 fold and the “CYP2B6 enzyme activity fold induction” value ([2]; donor three, 10 µM) was 1.13 fold. For the same molecule, the “CYP2B6 mRNA fold induction” value ([2]; donor three, 10 µM) was 0.806 fold, the “CYP2B6 enzyme activity fold induction” value ([2]; donor three, 20 µM) was 1.08 fold and the “CYP2B6 mRNA fold induction” value ([2]; donor three, 20 µM) was 0.840 fold. The “CYP2B6 enzyme activity fold induction” value ([2]; donor two, 0.002 µM) was 0.960 fold, the “CYP2B6 mRNA fold induction” value ([2]; donor two, 0.002 µM) was 0.643 fold and the “CYP2B6 enzyme activity fold induction” value ([2]; donor two, 0.01 µM) was 0.895 fold. For the same molecule, the “CYP2B6 mRNA fold induction” value ([2]; donor two, 0.01 µM) was 0.522 fold, the “CYP2B6 enzyme activity fold induction” value ([2]; donor two, 0.05 µM) was 0.944 fold and the “CYP2B6 mRNA fold induction” value ([2]; donor two, 0.05 µM) was 0.571 fold. For the same molecule, the “CYP2B6 enzyme activity fold induction” value ([2]; donor two, 0.25 µM) was 0.963 fold, the “CYP2B6 mRNA fold induction” value ([2]; donor two, 0.25 µM) was 0.622 fold and the “CYP2B6 enzyme activity fold induction” value ([2]; donor two, 5 µM) was 1.22 fold. For the same molecule, the “CYP2B6 mRNA fold induction” value ([2]; donor two, 5 µM) was 0.515 fold, the “CYP2B6 enzyme activity fold induction” value ([2]; donor two, 10 µM) was 1.20 fold and the “CYP2B6 mRNA fold induction” value ([2]; donor two, 10 µM) was 0.596 fold. For the same molecule, the “CYP2B6 enzyme activity fold induction” value ([2]; donor two, 20 µM) was 1.40 fold, the “CYP2B6 mRNA fold induction” value ([2]; donor two, 20 µM) was 0.809 fold and the “induction of CYP2B6 (mRNA or enzyme activity), conclusion” value ([2]; human hepatocytes, three donors) was “no meaningful concentration‐dependent induction; also recorded: did not appear to be an inducer; also recorded: did not induce”. The “CYP3A4 enzyme activity fold induction” value ([3]; donor one, 0.002 µM) was 0.600 fold, the “CYP3A4 mRNA fold induction” value ([3]; donor one, 0.002 µM) was 0.450 fold and the “CYP3A4 enzyme activity fold induction” value ([3]; donor one, 0.01 µM) was 0.595 fold. The “CYP3A4 mRNA fold induction” value ([3]; donor one, 0.01 µM) was 0.583 fold, the “CYP3A4 enzyme activity fold induction” value ([3]; donor one, 0.05 µM) was 0.604 fold and the “CYP3A4 mRNA fold induction” value ([3]; donor one, 0.05 µM) was 0.507 fold. The “CYP3A4 enzyme activity fold induction” value ([3]; donor one, 0.25 µM) was 0.685 fold, the “CYP3A4 mRNA fold induction” value ([3]; donor one, 0.25 µM) was 0.681 fold and the “CYP3A4 enzyme activity fold induction” value ([3]; donor one, 5 µM) was 0.451 fold. The “CYP3A4 mRNA fold induction” value ([3]; donor one, 5 µM) was 0.647 fold, the “CYP3A4 enzyme activity fold induction” value ([3]; donor one, 10 µM) was 0.446 fold and the “CYP3A4 mRNA fold induction” value ([3]; donor one, 10 µM) was 0.890 fold. For the same molecule, the “CYP3A4 enzyme activity fold induction” value ([3]; donor one, 20 µM) was 0.561 fold, the “CYP3A4 mRNA fold induction” value ([3]; donor one, 20 µM) was 1.74 fold and the “CYP3A4 enzyme activity fold induction” value ([3]; donor three, 0.002 µM) was 0.626 fold. The “CYP3A4 mRNA fold induction” value ([3]; donor three, 0.002 µM) was 0.562 fold, the “CYP3A4 enzyme activity fold induction” value ([3]; donor three, 0.01 µM) was 0.543 fold and the “CYP3A4 mRNA fold induction” value ([3]; donor three, 0.01 µM) was 0.484 fold. The “CYP3A4 enzyme activity fold induction” value ([3]; donor three, 0.05 µM) was 0.545 fold, the “CYP3A4 mRNA fold induction” value ([3]; donor three, 0.05 µM) was 0.450 fold and the “CYP3A4 enzyme activity fold induction” value ([3]; donor three, 0.25 µM) was 0.668 fold. For the same molecule, the “CYP3A4 mRNA fold induction” value ([3]; donor three, 0.25 µM) was 0.684 fold, the “CYP3A4 enzyme activity fold induction” value ([3]; donor three, 5 µM) was 0.542 fold and the “CYP3A4 mRNA fold induction” value ([3]; donor three, 5 µM) was 0.615 fold. For the same molecule, the “CYP3A4 enzyme activity fold induction” value ([3]; donor three, 10 µM) was 0.563 fold, the “CYP3A4 mRNA fold induction” value ([3]; donor three, 10 µM) was 0.764 fold and the “CYP3A4 enzyme activity fold induction” value ([3]; donor three, 20 µM) was 0.637 fold. The “CYP3A4 mRNA fold induction” value ([3]; donor three, 20 µM) was 1.33 fold, the “CYP3A4 enzyme activity fold induction” value ([3]; donor two, 0.002 µM) was 0.601 fold and the “CYP3A4 mRNA fold induction” value ([3]; donor two, 0.002 µM) was 0.739 fold. The “CYP3A4 enzyme activity fold induction” value ([3]; donor two, 0.01 µM) was 0.635 fold, the “CYP3A4 mRNA fold induction” value ([3]; donor two, 0.01 µM) was 0.714 fold and the “CYP3A4 enzyme activity fold induction” value ([3]; donor two, 0.05 µM) was 0.657 fold. For the same molecule, the “CYP3A4 mRNA fold induction” value ([3]; donor two, 0.05 µM) was 0.739 fold, the “CYP3A4 enzyme activity fold induction” value ([3]; donor two, 0.25 µM) was 0.769 fold and the “CYP3A4 mRNA fold induction” value ([3]; donor two, 0.25 µM) was 0.817 fold. For the same molecule, the “CYP3A4 enzyme activity fold induction” value ([3]; donor two, 5 µM) was 0.690 fold, the “CYP3A4 mRNA fold induction” value ([3]; donor two, 5 µM) was 0.856 fold and the “CYP3A4 enzyme activity fold induction” value ([3]; donor two, 10 µM) was 0.637 fold. For the same molecule, the “CYP3A4 mRNA fold induction” value ([3]; donor two, 10 µM) was 1.02 fold, the “CYP3A4 enzyme activity fold induction” value ([3]; donor two, 20 µM) was 0.856 fold and the “CYP3A4 mRNA fold induction” value ([3]; donor two, 20 µM) was 1.95 fold.
